The record followed here is US9670227B2, “Thienopyrimidine derivatives, a process for their preparation and pharmaceutical compositions containing them” (LES LABORATOIRES SERVIER, priority 2013, dated 2017).

SMILES strings stand for the structures. Where two headings read alike, the source gives them in different places.

In one assay the target is Mcl-1 protein (UniProtKB primary accession number: Q07820) (Homo sapiens, UniProt Q07820). The assay is described as follows: Inhibition of Mcl-1 by fluorescence polarisation, Method 1. It is filed as binding. The following applies: fluorescence polarisation; Method 1, or Method 2; read-out: IC50 (M) Mcl-1 FP. In short, it runs like this: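 An 11-point DMSO dilution of compound is mixed with buffer (10 mM HEPES, 150 mM NaCl, 0.05% Tween 20, pH 7.4) carrying 1 nM fluorescein-labelled ligand and 5 nM Mcl-1, final concentrations. Displacement is monitored by fluorescence polarisation.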
(In general: Polarisation of emitted light reports the rotation of a fluorescent probe.)

Assay [1] has as its system H929 multiple myeloma tumour line. The assay is described as follows: In vitro cytotoxicity, Microculture Tetrazolium Assay. It is filed as cell-based. The following applies: H929 cells, 48 hours exposure, MTT, read-out: IC50 (μM) MTT H929. As to the method: The cytotoxicity studies were carried out on the H929 multiple myeloma tumour line.
The cells are distributed onto microplates and exposed to the test compounds for 48 hours.

Mcl-1 protein, sequence (Q07820 whole entry): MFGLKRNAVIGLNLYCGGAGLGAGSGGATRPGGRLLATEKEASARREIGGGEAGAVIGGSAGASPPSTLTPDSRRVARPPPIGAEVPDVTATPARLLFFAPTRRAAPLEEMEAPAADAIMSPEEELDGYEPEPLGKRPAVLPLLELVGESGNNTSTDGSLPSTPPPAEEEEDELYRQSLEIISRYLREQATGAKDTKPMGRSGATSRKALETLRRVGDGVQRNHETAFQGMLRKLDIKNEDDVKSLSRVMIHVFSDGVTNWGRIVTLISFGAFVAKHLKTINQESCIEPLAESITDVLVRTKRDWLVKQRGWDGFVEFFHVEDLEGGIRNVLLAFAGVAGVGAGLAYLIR

With `CC#Cc1sc2ncnc(OC(Cc3ccccc3OC)C(=O)O)c2c1-c1ccc(OCCN2CCCC2)c(Cl)c1C` [Example 468, (2R)-2-{[(5Sa)-5-{3-chloro-2-methyl-4-[2-(pyrrolidin-1-yl)ethoxy]phenyl}-6-(prop-1-yn-1-yl)thieno[2,3-d]pyrimidin-4-yl]oxy}-3-(2-methoxyphenyl)propanoic acid], the 50% inhibitory concentration (IC50) – broadly, the concentration that gives 50% inhibition – on Mcl-1 protein turned out to be 8.6e-09 M; in assay [1] (Homo sapiens, NCI-H929, 48 h), 2.02 µM.

As for `CC#Cc1sc2ncnc(OC(Cc3ccccc3OC)C(=O)O)c2c1-c1ccc(OCCN2CCCCC2)c(Cl)c1C` [Example 469, (2R)-2-{[(5Sa)-5-{3-chloro-2-methyl-4-[2-(piperidin-1-yl)ethoxy]phenyl}-6-(prop-1-yn-1-yl)thieno[2,3-d]pyrimidin-4-yl]oxy}-3-(2-methoxyphenyl)propanoic acid], the IC50 on Mcl-1 protein was found to be 1.5e-08 M; in assay [1] (Homo sapiens, NCI-H929, 48 h), 3.06 µM.

With `CC#Cc1sc2ncnc(O[C@H](Cc3ccccc3OC)C(=O)O)c2c1-c1cc(C)c(OCCN2CCN(C)CC2)c(Cl)c1C` [Example 475, (2R)-2-{[(5Sa)-5-{3-chloro-2,5-dimethyl-4-[2-(4-methylpiperazin-1-yl)ethoxy]phenyl}-6-(prop-1-yn-1-yl)thieno[2,3-d]pyrimidin-4-yl]oxy}-3-(2-methoxyphenyl)propanoic acid], the IC50 stood at 6.8e-09 M on Mcl-1 protein and 1.12 µM in assay [1].

In the case of `CC#Cc1sc2ncnc(OC(Cc3ccccc3OC)C(=O)O)c2c1-c1cc(F)c(OCCN2CCN(C)CC2)c(Cl)c1C` [Example 476, (2R)-2-{[(5Sa)-5-{3-chloro-5-fluoro-2-methyl-4-[2-(4-methylpiperazin-1-yl)ethoxy]phenyl}-6-(prop-1-yn-1-yl)thieno[2,3-d]pyrimidin-4-yl]oxy}-3-(2-methoxyphenyl)propanoic acid], the IC50 on Mcl-1 protein is 2e-08 M; in assay [1] (Homo sapiens, NCI-H929, 48 h), 1.03 µM.

As to `CC#Cc1sc2ncnc(OC(Cc3ccccc3OC)C(=O)O)c2c1-c1cc(OC)c(OCCN2CCN(C)CC2)c(Cl)c1C` [Example 477, (2R)-2-{[(5Sa)-5-{3-chloro-5-methoxy-2-methyl-4-[2-(4-methylpiperazin-1-yl)ethoxy]phenyl}-6-(prop-1-yn-1-yl)thieno[2,3-d]pyrimidin-4-yl]oxy}-3-(2-methoxyphenyl)propanoic acid], the half-maximal inhibitory concentration (IC50) came to 5.6e-08 M at Mcl-1 protein and 2.57 µM in assay [1] (Homo sapiens, NCI-H929, 48 h).

With `CC#Cc1sc2ncnc(OC(Cc3ccccc3OCC)C(=O)O)c2c1-c1ccc(OCCN2CCN(C)CC2)c(Cl)c1C` [Example 481, (2R)-2-{[(5Sa)-5-{3-chloro-2-methyl-4-[2-(4-methylpiperazin-1-yl)ethoxy]phenyl}-6-(prop-1-yn-1-yl)thieno[2,3-d]pyrimidin-4-yl]oxy}-3-(2-ethoxyphenyl)propanoic acid], the IC50 on Mcl-1 protein is 5.4e-09 M; in assay [1] (Homo sapiens, NCI-H929, 48 h), 0.643 µM.

Take `CC#Cc1sc2ncnc(OC(Cc3ccccc3OCc3ccnc(CCOC)n3)C(=O)O)c2c1-c1ccc(OCCN2CCN(C)CC2)c(Cl)c1C` [Example 484, (2R)-2-{[(5Sa)-5-{3-chloro-2-methyl-4-[2-(4-methylpiperazin-1-yl)ethoxy]phenyl}-6-(prop-1-yn-1-yl)thieno[2,3-d]pyrimidin-4-yl]oxy}-3-(2-{[2-(2-methoxyethyl)pyrimidin-4-yl]methoxy}phenyl)propanoic acid]: the IC50 was determined as 3.4e-09 M at Mcl-1 protein and 0.014 µM in assay [1] (Homo sapiens, NCI-H929, 48 h).

Regarding `CC#Cc1sc2ncnc(OC(Cc3ccccc3OCc3ccnc(OC)n3)C(=O)O)c2c1-c1ccc(OCCN2CCN(C)CC2)c(Cl)c1C` [Example 486, (2R)-2-{[(5Sa)-5-{3-chloro-2-methyl-4-[2-(4-methylpiperazin-1-yl)ethoxy]phenyl}-6-(prop-1-yn-1-yl)thieno[2,3-d]pyrimidin-4-yl]oxy}-3-{2-[(2-methoxypyrimidin-4-yl)methoxy]phenyl}propanoic acid], the IC50 at Mcl-1 protein came out at 1.9e-09 M; in assay [1] (Homo sapiens, NCI-H929, 48 h) it was 0.146 µM.

With `CC#Cc1sc2ncnc(OC(Cc3cccc4occc34)C(=O)O)c2c1-c1ccc(OCCN2CCN(C)CC2)c(Cl)c1C` [Example 492, (2R)-3-(1-benzofuran-4-yl)-2-{[(5Sa)-5-{3-chloro-2-methyl-4-[2-(4-methylpiperazin-1-yl)ethoxy]phenyl}-6-(prop-1-yn-1-yl)thieno[2,3-d]pyrimidin-4-yl]oxy}propanoic acid], the IC50 turned out to be 9e-08 M on Mcl-1 protein and 2.19 µM in assay [1] (Homo sapiens, NCI-H929, 48 h).

`Cc1csc(-c2sc3ncnc(OC(Cc4ccccc4)C(=O)O)c3c2-c2ccc(OCCN3CCN(C)CC3)c(Cl)c2C)c1` [Example 495, (2R)-2-{[(5Sa)-5-{3-chloro-2-methyl-4-[2-(4-methylpiperazin-1-yl)ethoxy]phenyl}-6-(4-methylthiophen-2-yl)thieno[2,3-d]pyrimidin-4-yl]oxy}-3-phenylpropanoic acid]: the half-inhibitory concentration (IC50) on Mcl-1 protein was determined as 3.6e-08 M; in assay [1] (Homo sapiens, NCI-H929, 48 h), 1.19 µM.

Consider `Cc1c(-c2c(-c3cc4ccccc4s3)sc3ncnc(OC(Cc4ccccc4)C(=O)O)c23)ccc(OCCN2CCN(C)CC2)c1Cl` [Example 497, (2R)-2-{[6-(1-benzothiophen-2-yl)-(5Sa)-5-{3-chloro-2-methyl-4-[2-(4-methylpiperazin-1-yl)ethoxy]phenyl}thieno[2,3-d]pyrimidin-4-yl]oxy}-3-phenylpropanoic acid], for which the IC50 at Mcl-1 protein came out at 9.1e-07 M; in assay [1] (Homo sapiens, NCI-H929, 48 h), 5.95 µM.

Turning to `Cc1ccc(-c2sc3ncnc(OC(Cc4ccccc4)C(=O)O)c3c2-c2ccc(OCCN3CCN(C)CC3)c(Cl)c2C)o1` [Example 499, (2R)-2-{[(5Sa)-5-{3-chloro-2-methyl-4-[2-(4-methylpiperazin-1-yl)ethoxy]phenyl}-6-(5-methylfuran-2-yl)thieno[2,3-d]pyrimidin-4-yl]oxy}-3-phenylpropanoic acid], the IC50 on Mcl-1 protein was determined as 1e-07 M; in assay [1] (Homo sapiens, NCI-H929, 48 h), 1.5 µM.

As to `Cc1ccc(-c2sc3ncnc(O[C@H](Cc4ccccc4)C(=O)O)c3c2-c2ccc(OCCN3CCN(C)CC3)c(Cl)c2C)s1` [Example 500, (2R)-2-{[(5Sa)-5-{3-chloro-2-methyl-4-[2-(4-methylpiperazin-1-yl)ethoxy]phenyl}-6-(5-methylthiophen-2-yl)thieno[2,3-d]pyrimidin-4-yl]oxy}-3-phenylpropanoic acid], the IC50 on Mcl-1 protein turned out to be 8e-08 M; in assay [1], 2.25 µM.

As for `Cc1c(-c2c(-c3ccc(Cl)s3)sc3ncnc(OC(Cc4ccccc4)C(=O)O)c23)ccc(OCCN2CCN(C)CC2)c1Cl` [Example 501, (2R)-2-{[(5Sa)-5-{3-chloro-2-methyl-4-[2-(4-methylpiperazin-1-yl)ethoxy]phenyl}-6-(5-chlorothiophen-2-yl)thieno[2,3-d]pyrimidin-4-yl]oxy}-3-phenylpropanoic acid], the IC50 was determined as 2.8e-07 M on Mcl-1 protein and 2.84 µM in assay [1] (Homo sapiens, NCI-H929, 48 h).

As to `Cc1c(-c2c(-c3cccn3C)sc3ncnc(OC(Cc4ccccc4)C(=O)O)c23)ccc(OCCN2CCN(C)CC2)c1Cl` [Example 503, (2R)-2-{[(5Sa)-5-{3-chloro-2-methyl-4-[2-(4-methylpiperazin-1-yl)ethoxy]phenyl}-6-(1-methyl-1H-pyrrol-2-yl)thieno[2,3-d]pyrimidin-4-yl]oxy}-3-phenylpropanoic acid], the IC50 on Mcl-1 protein stood at 5e-07 M; in assay [1] (Homo sapiens, NCI-H929, 48 h), 7.02 µM.

For the molecule `Cc1c(-c2c(-c3ccn(C)n3)sc3ncnc(OC(Cc4ccccc4)C(=O)O)c23)ccc(OCCN2CCN(C)CC2)c1Cl` [Example 506, (2R)-2-{[(5Sa)-5-{3-chloro-2-methyl-4-[2-(4-methylpiperazin-1-yl)ethoxy]phenyl}-6-(1-methyl-1H-pyrazol-3-yl)thieno[2,3-d]pyrimidin-4-yl]oxy}-3-phenylpropanoic acid], the half-inhibitory concentration (IC50) is 7.5e-08 M on Mcl-1 protein and 8.29 µM in assay [1] (Homo sapiens, NCI-H929, 48 h).

For the molecule `Cc1c(-c2c(-c3ccoc3)sc3ncnc(OC(Cc4ccccc4)C(=O)O)c23)ccc(OCCN2CCN(C)CC2)c1Cl` [Example 509, (2R)-2-{[(5Sa)-5-{3-chloro-2-methyl-4-[2-(4-methylpiperazin-1-yl)ethoxy]phenyl}-6-(furan-3-yl)thieno[2,3-d]pyrimidin-4-yl]oxy}-3-phenylpropanoic acid], the IC50 is 6.2e-08 M on Mcl-1 protein and 1.46 µM in assay [1] (Homo sapiens, NCI-H929, 48 h).

Take `Cc1c(-c2c(-c3ccsc3)sc3ncnc(OC(Cc4ccccc4)C(=O)O)c23)ccc(OCCN2CCN(C)CC2)c1Cl` [Example 510, (2R)-2-{[(5Sa)-5-{3-chloro-2-methyl-4-[2-(4-methylpiperazin-1-yl)ethoxy]phenyl}-6-(thiophen-3-yl)thieno[2,3-d]pyrimidin-4-yl]oxy}-3-phenylpropanoic acid]: the IC50 on Mcl-1 protein worked out at 3.9e-08 M; in assay [1] (Homo sapiens, NCI-H929, 48 h) it was 0.639 µM.

For `Cc1c(-c2c(-c3cncs3)sc3ncnc(OC(Cc4ccccc4)C(=O)O)c23)ccc(OCCN2CCN(C)CC2)c1Cl` [Example 512, (2R)-2-{[(5Sa)-5-{3-chloro-2-methyl-4-[2-(4-methylpiperazin-1-yl)ethoxy]phenyl}-6-(1,3-thiazol-5-yl)thieno[2,3-d]pyrimidin-4-yl]oxy}-3-phenylpropanoic acid], the half-inhibitory concentration (IC50) at Mcl-1 protein amounted to 1.3e-07 M; in assay [1] (Homo sapiens, NCI-H929, 48 h) it was 7.42 µM.

As to `Cc1cc(-c2sc3ncnc(OC(Cc4ccccc4)C(=O)O)c3c2-c2ccc(OCCN3CCN(C)CC3)c(Cl)c2C)cs1` [Example 514, (2R)-2-{[(5Sa)-5-{3-chloro-2-methyl-4-[2-(4-methylpiperazin-1-yl)ethoxy]phenyl}-6-(5-methylthiophen-3-yl)thieno[2,3-d]pyrimidin-4-yl]oxy}-3-phenylpropanoic acid], the IC50 on Mcl-1 protein worked out at 9.6e-08 M; in assay [1] (Homo sapiens, NCI-H929, 48 h) it was 1.7 µM.

With `Cc1cscc1-c1sc2ncnc(O[C@H](Cc3ccccc3)C(=O)O)c2c1-c1ccc(OCCN2CCN(C)CC2)c(Cl)c1C` [Example 516, (2R)-2-{[(5Sa)-5-{3-chloro-2-methyl-4-[2-(4-methylpiperazin-1-yl)ethoxy]phenyl}-6-(4-methylthiophen-3-yl)thieno[2,3-d]pyrimidin-4-yl]oxy}-3-phenylpropanoic acid], the half-maximal inhibitory concentration (IC50) at Mcl-1 protein is 1.3e-07 M; in assay [1], 5.07 µM.
